According to paper PMC5458078, “Global mapping of CARM1 substrates defines enzyme specificity and substrate recognition” (Nature Communications, 2017):

Tests used:
[1] = tested on: MCF7 CARM1 KO cells; test: Quantitative MS of ADMA-containing peptides in MCF7 CARM1 KO cells expressing CARM1 28-608 or CARM1 140-608, and in CARM1 KO; assay type: cell-based, human
[2] = tested on: MCF7 cells; test: Quantitative nanoLC-MS/MS (TMT) of ADMA-containing peptides, CARM1 KO vs parental; assay type: cell-based, human; design: Fold change KO/WT: scale not given here
[3] = mean, CARM1 140-608 versus WT (log2 scale)
[4] = mean, CARM1 KO versus WT (log2 scale)
[5] = MCF7 CARM1 knockout vs wild type, 3 biological replicates each, values are on log2 scale
[6] = CARM1 140-608 versus WT, difference of mean log2 values
[7] = CARM1 KO versus WT, difference of mean log2 values
[8] = ADMA-containing peptide, MCF7, CARM1 knockout (KO1-3) vs wild type (WT1-3), TMT 6-plex experiment #1
[9] = CARM1 140-608 vs WT, mean of 3 replicates (log2 scale)
[10] = KO vs WT, mean of 3 replicates (log2 scale)
[11] = MCF7, CARM1 KO (KO1-KO3) vs wild type (WT1-WT3)
[12] = CARM1 140-608 versus WT, mean of three replicates (log2)
[13] = KO versus WT, mean of three replicates (log2)
[14] = ADMA-containing peptide, CARM1 knockout (KO) vs wild type (WT) MCF7 cells, 6-plex TMT experiment #1, three biological replicates each, sheet "MCF7"
[15] = ratio on log2 scale, mean of 3 replicates
[16] = MCF7, CARM1 knockout vs wild type, n = 3 each
[17] = MCF7, CARM1 KO vs WT, three biological replicates each
[18] = difference of log2 means, CARM1 140-608 vs WT
[19] = difference of log2 means, KO vs WT
[20] = log2 scale ratio, mean of n = 3
[21] = CARM1 140-608 vs WT, mean of 3 replicates, log2
[22] = KO vs WT, mean of 3 replicates, log2
[23] = CARM1 KO vs wild type MCF7 cells, 3 biological replicates each

## EVYQQQQYGSGGrGNR
[1]; [3]
  CARM1 140-608/WT: -0.0375
[1]; [4]
  KO/WT: 0.5359
[2]; [5]
  Fold change KO/WT: 0.5359

## QrGVSHAMGGrGGINrGNIN
[1]; [6]
  CARM1 140-608/WT: -0.01925
[1]; [7]
  KO/WT: 0.2719
[2]; [8]
  Fold change KO/WT: 0.1671

## MGTPVPRPPQDMGQIGVrTPLGPrVAAPVGPVGPTPTVLPMGAPVPrPrGPPPPPGDENR
[1]; [9]
  CARM1 140-608/WT: -2.604
[1]; [10]
  KO/WT: -3.5517
[2]; [11]
  Fold change KO/WT: -3.294

## QLrMQLQQrLQGQQFLNQSrQALELK
[1]; [12]
  CARM1 140-608/WT: -3.52
[1]; [13]
  KO/WT: -6.321
[2]; [14]
  Fold change KO/WT: -3.961

## TPASTWASPrPLLNWSR
[1]; [9]
  CARM1 140-608/WT: -2.026
[1]; [10]
  KO/WT: -3.334
[2]; [11]
  Fold change KO/WT: -3.334

## GMQHFPPGPGGPMPGPHGGPGGPVGPrLLGPPPPPR
[1]; [12]
  CARM1 140-608/WT: -0.7184
[1]; [13]
  KO/WT: -1.425
[2]; [14]
  Fold change KO/WT: -1.283

## SPLLNQPVPELSHASLIANQSPFrAPLNVTNTAGTSLPSVDLLQK
[1]; [15]
  CARM1 140-608/WT: -2.179
  KO/WT: -2.328
[2]; [16]
  Fold change KO/WT: -2.328

## GPLPPPRPTPrPPVPPrGPLrGPLPQ
[1]; [9]
  CARM1 140-608/WT: 0.8489
[1]; [10]
  KO/WT: -0.7434
[2]; [11]
  Fold change KO/WT: -0.7434

## FSPNPPQQGAVrPQTLNFSSR
[1]; [15]
  CARM1 140-608/WT: 1.2079
  KO/WT: -1.542
[2]; [17]
  Fold change KO/WT: -3.724

## VrPVLNLPGPGPALPrALER
[1]; [18]
  CARM1 140-608/WT: -2.008
[1]; [19]
  KO/WT: -2.391
[2]; [14]
  Fold change KO/WT: -2.391

## EPLVATNLPGrGQLQK
[1]; [20]
  CARM1 140-608/WT: -0.7114
  KO/WT: -0.7768
[2]; [8]
  Fold change KO/WT: -0.7768

## LQNAFWEHGASrAMLPGSPLFTrAPPPK
[1]; [12]
  CARM1 140-608/WT: -1.727
[1]; [13]
  KO/WT: -2.217
[2]; [11]
  Fold change KO/WT: -2.217

## SPYTTTrYGSPINTFTVrPGTR
[1]; [21]
  CARM1 140-608/WT: -2.642
[1]; [22]
  KO/WT: -5.424
[2]; [17]
  Fold change KO/WT: -3.428

## RPPPEHFrRPPPEHFR
[1]; [12]
  CARM1 140-608/WT: -0.8789
[1]; [13]
  KO/WT: -0.5356
[2]; [11]
  Fold change KO/WT: -0.5356

## GPPPGSANPPrLVSSYrLK
[1]; [18]
  CARM1 140-608/WT: -0.6365
[1]; [19]
  KO/WT: -1.758
[2]; [5]
  Fold change KO/WT: -2.444

## LITFQLrHILK
[1]; [6]
  CARM1 140-608/WT: -4.254
[1]; [7]
  KO/WT: -5.219
[2]; [8]
  Fold change KO/WT: -5.219

## RGPLSQNGSFGPSPVSGGECSPPLTVEPPVrPLSATLNR
[1]; [18]
  CARM1 140-608/WT: -1.692
[1]; [19]
  KO/WT: -2.59
[2]; [14]
  Fold change KO/WT: -2.59

## QSHTLPFPPPPALPFYPASAYPrHFGPVPPSQGR
[1]; [15]
  CARM1 140-608/WT: -0.8989
  KO/WT: -1.33
[2]; [16]
  Fold change KO/WT: -1.33

## AFHDYSAAAAPSPVLGNIPPNDGMPGGPIPPGFFQPFMSPrYAGGPrPPIR
[2]; [8]
  Fold change KO/WT: -2.246

## TPGQPGPQrFDGPPGQQVQPrFDGVPQrFDGPQHQQASR
[1]; [12]
  CARM1 140-608/WT: -1.05
[1]; [13]
  KO/WT: -1.824
[2]; [14]
  Fold change KO/WT: -1.547

## ATSVLPrYGPPCLFK
[1]; [20]
  CARM1 140-608/WT: -1.277
  KO/WT: -3.4878
[2]; [8]
  Fold change KO/WT: -3.4878

## FLQPrLAPNQPPPPLIrPALAAPRHSARPGPQPPPTLIGTPLEPPAPSL
[2]; [11]
  Fold change KO/WT: -2.908

## DLPLHPrGFLPGHAPFrPLGSLGPrEYFIPGTrLPPPTHGPQEYPPPPAVR
[1]; [18]
  CARM1 140-608/WT: -0.2675
[1]; [19]
  KO/WT: -2.443
[2]; [14]
  Fold change KO/WT: -1.638

## GPVGQALPrPQAPPrLQSLMGTVQQGAQSWQQR
[1]; [18]
  CARM1 140-608/WT: -1.639
[1]; [19]
  KO/WT: -3.859
[2]; [14]
  Fold change KO/WT: -3.859

## HSAYSYCGrGFYPQYGALETrGGFNPR
[1]; [3]
  CARM1 140-608/WT: -0.5986
[1]; [4]
  KO/WT: -0.0486
[2]; [5]
  Fold change KO/WT: -0.3157

## SHGYKPHFVPNFNGPNAIrQFQPNQINENWK
[1]; [15]
  CARM1 140-608/WT: -1.237
  KO/WT: -2.033
[2]; [16]
  Fold change KO/WT: -2.033

## ErDMQYVQR
[1]; [6]
  CARM1 140-608/WT: 0.06744
[1]; [7]
  KO/WT: 1.019
[2]; [23]
  Fold change KO/WT: 1.019

## DLVILLYETALLSSDFGLEGPQTHANr
[2]; [5]
  Fold change KO/WT: 0.05306

## AGSQGGrGGGAQAAAR
[1]; [21]
  CARM1 140-608/WT: 0.1432
[1]; [22]
  KO/WT: 0.7684
[2]; [17]
  Fold change KO/WT: 0.4231

## GAPHFrFIIAGR
[1]; [20]
  CARM1 140-608/WT: -0.6361
  KO/WT: -0.5643
[2]; [8]
  Fold change KO/WT: -0.1995

## FArVPLALHPVVGQPFLK
[1]; [15]
  CARM1 140-608/WT: -2.105
  KO/WT: -2.764
[2]; [17]
  Fold change KO/WT: -2.764

## EELLrHQLLEKR
[2]; [17]
  Fold change KO/WT: -2.786

## TEQAGrNALLSDISK
[2]; [23]
  Fold change KO/WT: -1.119

## PABP1: a known CARM1 substrate
[2]; CARM1 KO vs parental MCF7 cells
  Decrease of ADMA site abundance on CARM1 loss: slightly over twofold

## GSGTGIYSNAAPPPVTYQGNLYrPLLrGQAQIPK
[2]; [23]
  Fold change KO/WT: -4.659

## LLGQRPGPYDrPIGGrGGYYGAGrGSMYDR
[2]; [5]
  Fold change KO/WT: -0.2245

## SPYTTTRYGSPINTFTVrPGTR
[2]; [17]
  Fold change KO/WT: -3.3255

## SYrGGGGGGGGWR
[2]; [8]
  Fold change KO/WT: -0.08168

## AYSSFGGGrGSR
[2]; [16]
  Fold change KO/WT: -0.1369

## GPQWKRGArGGNLVTGTQr
[2]; [5]
  Fold change KO/WT: -0.2728

## VPASPQSQSSSQSPLTPrPLSAEAFCPSPVTPRFQSPDPYSRPPSRPQSR
[2]; [5]
  Fold change KO/WT: -2.744

## INPGLEYrQHLLLR
[2]; [5]
  Fold change KO/WT: -1.551

## SAGGRPGSGPQLGTGrGTLR
[2]; [16]
  Fold change KO/WT: -0.3785

## GrGTLTrGAFVGATAAPGYIAPGYGTPYGYSTAAPAYGLPKR
[2]; [8]
  Fold change KO/WT: -0.6705

## GGrFSAQGMGTFNPADYAEPANTDDNYGNSSGNTWNNTGHFEPDDGTSAWR
[2]; [23]
  Fold change KO/WT: -0.4035

## AGPrLLLIPVQQGSPTLrPVSNTQLQGHrMVLQPVR
[2]; [14]
  Fold change KO/WT: -0.8102
